Assay results taken from US12371428B2 (Exelixis, Inc., priority 2019, dated 2025).
Where a name gives a salt, the structure may show the parent alone. Read-outs that look alike come from different tables or passages of the source.

What was measured:
[1] = target: Human MET (residues 956-1390) (Homo sapiens (Human), UniProt P08581); assay: Human Met kinase assay, HTRF KinEase (Example D-2); type: biochemical; conditions: read-out: c-Met IC50
Experimental: (§1) Kinase activity and compound inhibition were also investigated using the HTRF® KinEase assay (Cisbio Cat #62TKOPEB) per manufacturer's instructions. In short, compounds were delivered in 300 nL volumes at 10 different concentrations in DMSO (3% final) to empty 384-well assay plates (Corning cat #3824). A mixture of enzyme, […] biotynlated peptide substrate, and buffer in 10 μL volume was added. The assay was started upon the addition of ATP (at Km). The 10 μL reaction was incubated at room temperature. The reaction was stopped upon the addition of detection buffer containing streptavidin-XL665 ([…]) and TK antibody-Eu3+([…]). After a 60 min incubation at room temperature, the fluorescence at 665 nm and 620 nm was read on an Envision microplate reader (Perkin Elmer).
(§2) Kinase activity normalized to DMSO (100% activity) and reference compound at […] and (0% activity) was calculated using the fluorescence ratio […]. IC50 values were calculated by nonlinear regression analysis using a 4-parameter logistic curve fit in ActivityBase XE (IDBS).
Example D-2: Human MET (residues 956-1390; CarnaBio, 0.1 ng/well) was also incubated with enzymatic buffer (Cisbio) supplemented with 5 mM MgCl2, 1 mM DTT and 1 mM MnCl2. The mixture was added to the pre-plated compounds. […] The reaction was incubated at room temperature for 40 min and stopped upon the addition of SA-XL665 and TK-antibody both diluted in EDTA-containing kinase detection buffer (Cisbio). The kinase activity was calculated as stated above and the IC50 values were reported.

[2] = target: Met (phospho-Met, HGF-stimulated PC-3 prostate cancer cells) (Homo sapiens (Human), UniProt P08581); assay: Met autophosphorylation ELISA in PC-3 cells (Example F); type: cell-based; conditions: cellular activity, read-out: c-Met IC50
Summary of the method: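 PC-3 cells, serum-starved 3 h, were treated with compounds (8-point dose curve, 0.3% DMSO final) for 1 h, then stimulated with 100 ng/mL recombinant human HGF for 10 min. Lysate phospho-Met (panTyr) was quantified by sandwich ELISA; IC50 from 4-parameter logistic fit.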

[3] = target: KDR (phospho-KDR, VEGF165-stimulated HUVEC cells) (Homo sapiens (Human), UniProt P35968); assay: KDR autophosphorylation ELISA in HUVEC cells (Example G); type: cell-based; conditions: cellular activity
Summary of the method: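 Read-out is phospho-KDR measured by ELISA in lysates of VEGF165-stimulated (100 ng/mL, 5 min) HUVEC that were serum-starved 24 h and then pre-exposed 1 h to compound across 8 doses in 0.3% DMSO. Unstimulated lysates defined 0% and stimulated vehicle lysates 100% activity; IC50 values come from 4-parameter logistic regression.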

[4] = target: Mer (phospho-Mer, MERTK-transfected 293A cells) (Homo sapiens (Human), UniProt Q12866); assay: Mer autophosphorylation ELISA in transient transfected 293A cells (Example H); type: cell-based; conditions: cellular activity
Summary of the method: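 MERTK-transfected 293A; 8-pt dose, 1 h, serum-free, 0.3% DMSO. Cold lysis with orthovanadate and protease/phosphatase inhibitors. Phospho-Mer by DuoSet IC ELISA vs phospho-Mer standard. IC50: 4-PL fit; DMSO = 100%, reference inhibitor = 0%.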

[5] = target: Human MER (residues 528-999) (Homo sapiens (Human), UniProt Q12866); assay: Human Mer kinase assay, HTRF KinEase (Example C-2); type: biochemical; conditions: protocol of Example C-2 (other compounds)
Experimental: as §1, §2
Example C-2: Human MER (residues 528-999; CarnaBio, 1 ng/well) was also incubated with enzymatic buffer (Cisbio) supplemented with 5 mM MgCl2 and 1 mM DTT. The mixture was added to the pre-plated compounds. The reaction was initiated upon addition of ATP at Km (40 μM). The reaction was incubated at room temperature for 60 min and stopped upon the addition of SA-XL665 and TK-antibody both diluted in EDTA-containing kinase detection buffer (Cisbio). The kinase activity was calculated as stated above and the IC50 values were reported.

[6] = protocol of Example D-2 (other compounds)
[7] = Met autophosphorylation ELISA in PC-3 cells
[8] = KDR autophosphorylation ELISA in HUVEC cells
[9] = Mer autophosphorylation ELISA in transient transfected 293A cells

Chain of KDR (phospho-KDR, VEGF165-stimulated HUVEC cells) (P35968 20-1356): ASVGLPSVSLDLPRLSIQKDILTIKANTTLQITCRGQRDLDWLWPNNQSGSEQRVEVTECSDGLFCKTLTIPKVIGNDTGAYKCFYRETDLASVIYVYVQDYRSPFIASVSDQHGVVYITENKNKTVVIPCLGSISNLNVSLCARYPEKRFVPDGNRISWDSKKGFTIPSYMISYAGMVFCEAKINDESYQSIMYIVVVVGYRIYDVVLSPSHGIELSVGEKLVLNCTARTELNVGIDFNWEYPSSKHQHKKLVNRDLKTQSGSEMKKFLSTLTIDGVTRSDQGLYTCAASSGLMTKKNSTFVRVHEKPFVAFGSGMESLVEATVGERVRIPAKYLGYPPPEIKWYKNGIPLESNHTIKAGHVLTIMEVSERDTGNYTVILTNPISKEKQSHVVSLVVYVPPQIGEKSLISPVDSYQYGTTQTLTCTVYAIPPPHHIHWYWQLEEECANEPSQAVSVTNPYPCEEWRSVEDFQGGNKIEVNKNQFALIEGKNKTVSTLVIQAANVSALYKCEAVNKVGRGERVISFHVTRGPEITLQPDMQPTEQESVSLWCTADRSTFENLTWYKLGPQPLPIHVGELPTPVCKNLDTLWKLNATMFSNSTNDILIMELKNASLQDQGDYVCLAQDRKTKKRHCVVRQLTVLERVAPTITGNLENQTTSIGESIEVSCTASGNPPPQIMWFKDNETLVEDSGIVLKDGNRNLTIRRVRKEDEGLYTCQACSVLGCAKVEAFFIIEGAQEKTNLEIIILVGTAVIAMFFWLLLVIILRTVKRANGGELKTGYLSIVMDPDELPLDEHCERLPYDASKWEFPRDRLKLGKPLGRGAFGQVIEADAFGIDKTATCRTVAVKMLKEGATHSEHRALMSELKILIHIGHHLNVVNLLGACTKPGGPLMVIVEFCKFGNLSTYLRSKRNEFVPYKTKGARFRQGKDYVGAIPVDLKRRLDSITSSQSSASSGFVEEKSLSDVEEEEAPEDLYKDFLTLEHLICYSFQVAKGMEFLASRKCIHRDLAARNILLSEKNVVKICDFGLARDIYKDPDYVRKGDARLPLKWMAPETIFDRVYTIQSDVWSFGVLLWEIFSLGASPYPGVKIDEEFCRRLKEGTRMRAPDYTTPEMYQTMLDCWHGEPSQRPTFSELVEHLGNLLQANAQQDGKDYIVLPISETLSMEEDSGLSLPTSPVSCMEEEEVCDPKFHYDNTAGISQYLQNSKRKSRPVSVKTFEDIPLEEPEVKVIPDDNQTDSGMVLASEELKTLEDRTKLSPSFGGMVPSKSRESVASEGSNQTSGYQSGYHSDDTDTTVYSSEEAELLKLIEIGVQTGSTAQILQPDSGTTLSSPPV
Chain of Mer (phospho-Mer, MERTK-transfected 293A cells) (Q12866 21-999): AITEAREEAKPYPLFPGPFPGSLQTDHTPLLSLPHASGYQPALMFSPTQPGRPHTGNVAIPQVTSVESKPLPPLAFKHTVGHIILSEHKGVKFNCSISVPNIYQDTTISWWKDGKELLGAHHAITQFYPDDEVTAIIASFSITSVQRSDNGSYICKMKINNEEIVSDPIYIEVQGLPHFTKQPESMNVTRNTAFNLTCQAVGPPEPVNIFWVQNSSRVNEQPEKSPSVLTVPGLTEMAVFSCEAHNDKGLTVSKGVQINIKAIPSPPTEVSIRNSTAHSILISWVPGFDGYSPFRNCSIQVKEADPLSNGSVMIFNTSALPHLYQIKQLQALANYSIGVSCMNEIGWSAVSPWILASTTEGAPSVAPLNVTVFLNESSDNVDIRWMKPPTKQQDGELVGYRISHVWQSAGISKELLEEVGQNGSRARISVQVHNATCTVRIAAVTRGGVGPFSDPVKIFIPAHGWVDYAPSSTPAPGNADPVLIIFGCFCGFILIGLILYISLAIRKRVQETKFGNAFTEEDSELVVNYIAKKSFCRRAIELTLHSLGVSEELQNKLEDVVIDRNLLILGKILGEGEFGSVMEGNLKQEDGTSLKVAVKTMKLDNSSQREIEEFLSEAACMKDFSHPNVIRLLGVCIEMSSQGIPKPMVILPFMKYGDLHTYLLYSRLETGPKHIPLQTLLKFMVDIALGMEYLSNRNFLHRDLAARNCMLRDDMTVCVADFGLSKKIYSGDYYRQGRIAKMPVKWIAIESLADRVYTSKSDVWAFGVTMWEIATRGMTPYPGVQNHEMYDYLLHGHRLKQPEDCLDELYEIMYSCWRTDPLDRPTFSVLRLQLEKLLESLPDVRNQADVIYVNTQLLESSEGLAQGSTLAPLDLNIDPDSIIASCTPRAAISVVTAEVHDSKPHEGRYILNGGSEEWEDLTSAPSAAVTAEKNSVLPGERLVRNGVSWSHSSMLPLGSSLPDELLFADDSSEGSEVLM
Chain of Met (phospho-Met, HGF-stimulated PC-3 prostate cancer cells) (P08581 25-1390): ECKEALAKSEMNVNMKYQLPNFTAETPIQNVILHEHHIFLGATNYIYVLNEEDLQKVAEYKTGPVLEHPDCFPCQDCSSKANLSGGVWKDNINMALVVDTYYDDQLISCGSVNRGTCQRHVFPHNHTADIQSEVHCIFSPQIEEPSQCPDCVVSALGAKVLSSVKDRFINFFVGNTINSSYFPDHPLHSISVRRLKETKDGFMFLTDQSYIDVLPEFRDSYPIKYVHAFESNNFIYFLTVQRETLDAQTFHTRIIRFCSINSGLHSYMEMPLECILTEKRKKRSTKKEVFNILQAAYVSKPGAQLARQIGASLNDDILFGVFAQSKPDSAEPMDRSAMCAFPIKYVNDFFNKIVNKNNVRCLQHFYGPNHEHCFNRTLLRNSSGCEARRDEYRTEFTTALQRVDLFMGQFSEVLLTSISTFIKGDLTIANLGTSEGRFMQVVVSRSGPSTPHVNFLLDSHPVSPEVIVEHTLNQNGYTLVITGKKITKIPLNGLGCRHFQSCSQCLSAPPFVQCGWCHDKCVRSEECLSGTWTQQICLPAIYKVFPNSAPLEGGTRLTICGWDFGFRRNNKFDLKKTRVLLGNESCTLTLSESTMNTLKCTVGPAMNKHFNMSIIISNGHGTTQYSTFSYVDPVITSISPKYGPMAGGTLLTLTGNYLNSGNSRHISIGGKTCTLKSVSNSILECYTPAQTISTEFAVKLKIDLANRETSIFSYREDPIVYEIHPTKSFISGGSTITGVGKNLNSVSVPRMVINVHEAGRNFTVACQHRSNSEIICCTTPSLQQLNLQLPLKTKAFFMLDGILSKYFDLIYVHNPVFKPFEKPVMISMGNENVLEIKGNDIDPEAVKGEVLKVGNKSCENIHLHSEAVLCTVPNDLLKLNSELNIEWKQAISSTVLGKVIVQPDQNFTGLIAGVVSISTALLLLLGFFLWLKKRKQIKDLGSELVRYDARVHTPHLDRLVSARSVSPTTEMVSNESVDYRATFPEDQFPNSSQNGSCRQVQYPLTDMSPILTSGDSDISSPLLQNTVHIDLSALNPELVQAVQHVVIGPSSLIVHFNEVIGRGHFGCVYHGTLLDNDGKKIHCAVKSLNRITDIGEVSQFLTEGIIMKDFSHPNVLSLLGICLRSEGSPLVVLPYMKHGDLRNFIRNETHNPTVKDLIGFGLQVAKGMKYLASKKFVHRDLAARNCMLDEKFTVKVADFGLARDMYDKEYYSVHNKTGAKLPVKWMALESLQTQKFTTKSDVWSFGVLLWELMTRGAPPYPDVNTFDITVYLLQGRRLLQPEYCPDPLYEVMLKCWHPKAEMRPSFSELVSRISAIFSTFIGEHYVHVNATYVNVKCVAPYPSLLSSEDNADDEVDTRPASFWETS
Chain of Human MET (residues 956-1390) (P08581 956-1390): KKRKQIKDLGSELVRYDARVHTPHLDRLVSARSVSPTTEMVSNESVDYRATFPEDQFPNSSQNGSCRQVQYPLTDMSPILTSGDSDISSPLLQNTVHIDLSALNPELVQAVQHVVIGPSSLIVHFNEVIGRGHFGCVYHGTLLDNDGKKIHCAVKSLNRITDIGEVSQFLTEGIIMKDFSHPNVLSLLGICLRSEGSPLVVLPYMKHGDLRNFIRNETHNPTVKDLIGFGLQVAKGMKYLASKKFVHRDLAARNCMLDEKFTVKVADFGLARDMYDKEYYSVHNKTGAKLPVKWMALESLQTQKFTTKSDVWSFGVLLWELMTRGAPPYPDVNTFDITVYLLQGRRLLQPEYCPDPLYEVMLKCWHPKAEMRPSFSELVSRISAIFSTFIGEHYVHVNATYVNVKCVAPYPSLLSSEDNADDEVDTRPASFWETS
Chain of Human MER (residues 528-999) (Q12866 528-999): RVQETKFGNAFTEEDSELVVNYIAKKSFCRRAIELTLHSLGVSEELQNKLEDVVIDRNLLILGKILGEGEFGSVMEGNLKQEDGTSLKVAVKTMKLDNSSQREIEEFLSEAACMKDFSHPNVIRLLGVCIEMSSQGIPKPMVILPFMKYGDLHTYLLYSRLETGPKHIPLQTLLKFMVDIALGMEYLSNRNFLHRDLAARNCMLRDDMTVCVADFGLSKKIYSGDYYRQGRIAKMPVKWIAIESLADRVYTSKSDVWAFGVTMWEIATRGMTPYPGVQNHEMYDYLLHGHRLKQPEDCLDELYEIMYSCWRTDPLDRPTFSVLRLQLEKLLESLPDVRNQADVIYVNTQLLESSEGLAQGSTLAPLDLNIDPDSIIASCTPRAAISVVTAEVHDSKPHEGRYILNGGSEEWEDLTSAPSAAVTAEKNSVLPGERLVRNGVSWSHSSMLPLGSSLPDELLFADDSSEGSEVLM

| Compound | IC50 [1, 6] [nM] | IC50 [2, 7] [nM] | IC50 [3, 8] [nM] | IC50 [4, 9] [nM] | IC50 [5] [nM] | IC50 ([1]; protocol of Example D-2) [nM] | IC50 ([2]; PC-3 cells) [nM] | IC50 ([3]; HUVEC cells) [nM] | IC50 ([4]; transfected 293A cells) [nM] |
| --- | --- | --- | --- | --- | --- | --- | --- | --- | --- |
| COc1cc2nccc(Oc3ccc(NC(=O)c4cn(-c5cnn(C)c5)cc(-c5ccc(F)cc5)c4=O)cc3F)c2nc1OC [Compound 51, N-[4-[(6,7-Dimethoxy-1,5-naphthyridin-4-yl)oxy]-3-fluorophenyl]-5-(4-fluorophenyl)-1-(1-methylpyrazol-4-yl)-4-oxopyridine-3-carboxamide] | < 100 | < 100 | > 300 | < 100 |  |  |  |  |  |
| COc1cc2nccc(Oc3ccc(NC(=O)c4cn(C5CN(C(=O)OC(C)(C)C)C5)cc(-c5ccc(F)cc5)c4=O)cc3F)c2nc1OC [Compound 114, tert-Butyl 3-[3-[[4-[(6,7-dimethoxy-1,5-naphthyridin-4-yl)oxy]-3-fluorophenyl]carbamoyl]-5-(4-fluorophenyl)-4-oxopyridin-1-yl]azetidine-1-carboxylate] | < 100 |  |  |  |  |  |  |  |  |
| Cc1ncc(C(=O)Nc2ccc(Oc3ccnc4cc(Br)cnc34)c(F)c2)c(O)c1-c1ccc(F)cc1 [Compound 133, N-[4-[(7-Bromo-1,5-naphthyridin-4-yl)oxy]-3-fluorophenyl]-5-(4-fluorophenyl)-4-hydroxy-6-methylpyridine-3-carboxamide] | < 100 | 100 to 300 | 100 to 300 | 100 to 300 |  |  |  |  |  |
| COc1cnc2c(Oc3ccc(NC(=O)c4cn(C(C)C)cc(-c5ccc(F)cc5)c4=O)cc3)ccnc2c1 [Compound 145, 5-(4-Fluorophenyl)-N-[4-[(7-methoxy-1,5-naphthyridin-4-yl)oxy]phenyl]-4-oxo-1-propan-2-ylpyridine-3-carboxamide] | < 100 | < 100 |  | < 100 |  |  |  |  |  |
| COc1cnc2c(Oc3ccc(NC(=O)c4c(C)nc(C)c(-c5ccc(F)cc5)c4O)cc3)ccnc2c1 [Compound 158, 5-(4-Fluorophenyl)-4-hydroxy-N-[4-[(7-methoxy-1,5-naphthyridin-4-yl)oxy]phenyl]-2,6-dimethylpyridine-3-carboxamide] | < 100 | < 100 | < 100 | < 100 |  |  |  |  |  |
| COc1nc2c(Oc3ccc(NC(=O)c4cnc(C)c(-c5ccc(F)cc5)c4O)cc3F)ccnc2cc1-c1cccnc1 [Compound 604, N-[3-Fluoro-4-[(6-methoxy-7-pyridin-3-yl-1,5-naphthyridin-4-yl)oxy]phenyl]-5-(4-fluorophenyl)-4-hydroxy-6-methylpyridine-3-carboxamide hydrochloride] |  | < 100 | < 100 | < 100 |  | < 100 |  |  |  |
| COc1nc2c(Oc3ccc(NC(=O)c4cnc(C)c(-c5ccc(F)cc5)c4O)cc3F)ccnc2cc1-c1cnn(C(F)F)c1 [Compound 607, N-[4-[[7-[1-(Difluoromethyl)pyrazol-4-yl]-6-methoxy-1,5-naphthyridin-4-yl]oxy]-3-fluorophenyl]-5-(4-fluorophenyl)-4-hydroxy-6-methylpyridine-3-carboxamide] |  | < 100 | < 100 | < 100 |  | < 100 |  |  |  |

Next, values leading:

| IC50 [1, 6] [nM] | IC50 [2, 7] [nM] | IC50 [3, 8] [nM] | IC50 [4, 9] [nM] | IC50 [5] [nM] | IC50 ([1]; protocol of Example D-2) [nM] | IC50 ([2]; PC-3 cells) [nM] | IC50 ([3]; HUVEC cells) [nM] | IC50 ([4]; transfected 293A cells) [nM] | Compound |
| --- | --- | --- | --- | --- | --- | --- | --- | --- | --- |
| < 100 | < 100 | > 300 | < 100 |  |  |  |  |  | COc1cc2nccc(Oc3ccc(NC(=O)c4cn(CC(F)(F)F)cc(-c5ccc(F)cc5)c4=O)cc3F)c2nc1OC [Compound 49, N-[4-[(6,7-Dimethoxy-1,5-naphthyridin-4-yl)oxy]-3-fluorophenyl]-5-(4-fluorophenyl)-4-oxo-1-(2,2,2-trifluoroethyl)pyridine-3-carboxamide] |
| < 100 | < 100 | 100 to 300 | < 100 |  |  |  |  |  | COc1cc2nccc(Oc3ccc(NC(=O)c4cn(C5CCC5)cc(-c5ccc(F)cc5)c4=O)cc3F)c2nc1OC [Compound 50, 1-Cyclobutyl-N-[4-[(6,7-dimethoxy-1,5-naphthyridin-4-yl)oxy]-3-fluorophenyl]-5-(4-fluorophenyl)-4-oxopyridine-3-carboxamide] |
| < 100 | < 100 | > 300 | < 100 | < 100 |  |  |  |  | COc1ccc2nccc(Oc3ccc(NC(=O)c4cn(C(C)C)c(C)c(-c5ccc(F)cc5)c4=O)cc3F)c2n1 [Compound 110, N-[3-Fluoro-4-[(6-methoxy-1,5-naphthyridin-4-yl)oxy]phenyl]-5-(4-fluorophenyl)-6-methyl-4-oxo-1-propan-2-ylpyridine-3-carboxamide] |
| < 100 | > 300 | < 100 | 100 to 300 |  |  |  |  |  | COc1cc2nccc(Oc3ccc(NC(=O)c4cn(O)cc(-c5ccc(F)cc5)c4=O)cc3F)c2nc1OC [Compound 134, N-[4-[(6,7-Dimethoxy-1,5-naphthyridin-4-yl)oxy]-3-fluorophenyl]-5-(4-fluorophenyl)-1-hydroxy-4-oxopyridine-3-carboxamide] |
| < 100 | < 100 | < 100 | < 100 | < 100 |  |  |  |  | CNn1cc(C(=O)Nc2ccc(Oc3ccnc4cc(OC)c(OC)nc34)c(F)c2)c(=O)c(-c2ccc(F)cc2)c1 [Compound 135, N-[4-[(6,7-Dimethoxy-1,5-naphthyridin-4-yl)oxy]-3-fluorophenyl]-5-(4-fluorophenyl)-1-(methylamino)-4-oxopyridine-3-carboxamide] |
| < 100 | < 100 | 100 to 300 | < 100 |  |  |  |  |  | COc1cc2nccc(Oc3ccc(NC(=O)c4cn(N=C(N(C)C)N(C)C)cc(-c5ccc(F)cc5)c4=O)cc3F)c2nc1OC [Compound 137, 1-[bis(Dimethylamino)methylideneamino]-N-[4-[(6,7-dimethoxy-1,5-naphthyridin-4-yl)oxy]-3-fluorophenyl]-5-(4-fluorophenyl)-4-oxopyridine-3-carboxamide] |
| < 100 | 100 to 300 | > 300 | < 100 |  |  |  |  |  | COc1cc2nccc(Oc3ccc(NC(=O)c4cn(CCn5ccnc5)cc(-c5ccc(F)cc5)c4=O)cc3F)c2nc1OC [Compound 159, N-[4-[(6,7-Dimethoxy-1,5-naphthyridin-4-yl)oxy]-3-fluorophenyl]-5-(4-fluorophenyl)-1-(2-imidazol-1-ylethyl)-4-oxopyridine-3-carboxamide] |
|  | 100 to 300 | < 100 | < 100 |  | < 100 |  |  |  | CNC(=O)c1cc2c(Oc3ccc(NC(=O)c4cnc(C)c(-c5ccc(F)cc5)c4O)cc3)ccnc2cc1OC [Compound 540, 4-[4-[[5-(4-fluorophenyl)-4-hydroxy-6-methylpyridine-3-carbonyl]amino]phenoxy]-7-methoxy-N-methylquinoline-6-carboxamide] |
|  | < 100 | < 100 | < 100 |  | < 100 |  |  |  | COc1nc2c(Oc3ccc(NC(=O)c4cn(C(C)C)cc(-c5ccc(F)cc5)c4=O)cc3F)ccnc2cc1-c1cnn(C(F)F)c1 [Compound 608, N-[4-[[7-[1-(Difluoromethyl)pyrazol-4-yl]-6-methoxy-1,5-naphthyridin-4-yl]oxy]-3-fluorophenyl]-5-(4-fluorophenyl)-4-oxo-1-propan-2-ylpyridine-3-carboxamide] |
|  |  |  |  |  |  | < 100 | > 300 | < 100 | COc1cnc2c(Oc3ccc(NC(=O)c4c(C)n(C)c(C)c(-c5ccc(F)cc5F)c4=O)cc3F)ccnc2c1 [Compound 824, 5-(2,4-difluorophenyl)-N-[3-fluoro-4-[(7-methoxy-1,5-naphthyridin-4-yl)oxy]phenyl]-1,2,6-trimethyl-4-oxopyridine-3-carboxamide] |
